Results reported in patent US10278942B2 (PELOTON THERAPEUTICS, INC., priority 2015, dated 2019).
pEC50, pIC50: −log10 of the molar value. Where two headings read alike, the source gives them in different places.

Columns and labels:
[1] = target: T1, HIF-2α HIS TAG-PASB Domain (Homo sapiens, UniProt Q99814); assay: HIF-2α Scintillation Proximity Assay (SPA); type: binding; settings: for pIC50: read-out: Scintillation Proximity Assay IC50; for IC50: Scintillation Proximity Assay IC50 (nM)
T1 construct: 100 nM HIF-2α HIS TAG-PASB Domain
How it was run: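 IC50 values rest on percent inhibition, where the sample signal is scaled between high and low controls. Wells contain about 100 μL: compound dispensed as 2 μL of DMSO solution, 88 μL protein-probe mix and 10 μL of beads.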

786-O cells = assay: VEGF ELISA Assay; type: cell-based; settings: Homo sapiens, 786-0
Description: Each concentration was plated in duplicate. About 20 hours later, medium was removed by suction and each well was supplied with 180 μL of growth medium. About 20 μl freshly-made 10× compound stocks were added to each well. […] The EC50 was calculated by GraphPad Prism using the dose-response-inhibition (four parameter) equation. The cell-seeded plate was then subjected to CellTiter-Glo luminescence cell viability assay (Promega) by adding 50 μL of Celltiter Glo reagent into each well and shaking the plate for 8 minutes at 550 rpm (Thermomixer R, Eppendorf) then the luminescence signal immediately read in a plate reader (3 second delay, 0.5 second/well integration time, Synergy 2 multi Detection Microplate reader).

786-O-Hif-Luc cells = assay: Luciferase Assay (HIF responsive elements reporter)
Description: A pool of infected cells were then selected against 2 μg/mL of puromycin (P8833, Sigma) for 10 days followed by limited dilution to select single clones. […] Each concentration was tested in triplicate. After about 24 hours, luciferase activity was determined using ONE-Glo Luciferase Assay Reagent (E6110, Promega) following the manufacturer's recommended procedure. EC50 were calculated using Dotmatics software.

[2] = read-out: Mean Luciferase EC50 (nM), 786-O-Hif-Luc cells

T1 sequence (Q99814 240-350 limits assumed): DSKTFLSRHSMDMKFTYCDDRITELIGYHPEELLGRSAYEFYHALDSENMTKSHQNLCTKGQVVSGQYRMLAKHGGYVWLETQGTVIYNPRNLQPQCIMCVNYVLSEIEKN

SMILES | pIC50 [1] | pEC50 (786-O cells) | EC50 (786-O-Hif-Luc cells; [2]) [nM] | IC50 [1] [nM] | EC50 (786-O-Hif-Luc cells; read-out: Mean Luciferase EC50 (nM)) [nM]
CS(=O)(=NC#N)c1ccc(Oc2cc(F)cc(C#N)c2)c2c1[C@H](O)C(F)(F)C2 (single isomer, unassigned) [Compound 240] | > 7.30 | 6.60 to 7.30 | < 50 |  | 
O=S(=O)(c1ccc(Oc2cc(F)cc(F)c2)c2c1[C@H](O)CC2)C(F)F [Compound 2] | > 7.30 | 6.60 to 7.30 | 50 to 249 |  | 
O=S(=O)(c1ccc(Oc2cc(F)cc(Cl)c2)c2c1C(O)C(F)(F)C2)C(F)F (centres unmarked) [Compound 8] |  | > 7.30 | < 50 | < 50 | 
O=S(=O)(c1ccc(Oc2cc(F)cc(F)c2)c2c1C(O)C(F)(F)C2)C(F)F (centres unmarked) [Compound 9] | > 7.30 | > 7.30 | < 50 |  | 
Cc1c(S(=O)(=O)C(F)F)ccc(Oc2cc(F)cc(F)c2)c1C#N [Compound 34] | > 7.30 | 6.00 to 6.60 | 250 to 1000 |  | 
O=S(=O)(c1ccc(Oc2cc(F)cc(F)c2)c2c1[C@H](O)CC2)C(F)(F)F [Compound 55] | > 7.30 | > 7.30 | < 50 |  | 
O=S(=O)(CF)c1ccc(Oc2cc(F)cc(F)c2)c2c1[C@H](O)CC2 [Compound 60] | > 7.30 | > 7.30 | 50 to 249 |  | 
N#Cc1cc(F)cc(Oc2ccc(S(=O)(=O)CF)c3c2CC(F)(F)[C@H]3O)c1 [Compound 63] |  | > 7.30 | < 50 | < 50 | 
O=S(=O)(CF)c1ccc(Oc2cc(F)cc(F)c2)c2c1[C@H](O)C(F)(F)C2 [Compound 64] | > 7.30 | > 7.30 | < 50 |  | 
N#Cc1cc(F)cc(Oc2ccc(S(=O)(=O)C(F)F)c(CO)c2Br)c1 [Compound 80] | > 7.30 | 6.00 to 6.60 | 250 to 1000 |  | 
N#Cc1c(S(=O)(=O)C(F)(F)F)ccc(Oc2cc(F)cc(Cl)c2)c1Br [Compound 98] | > 7.30 | < 6.00 | > 1000 |  | 
N#Cc1cc(F)cc(Oc2ccc(S(=O)(=O)C(F)F)cc2Br)c1 [Compound 132] | 6.00 to 6.60 | 6.00 to 6.60 | > 1000 |  | 
O=S(=O)(c1ccc(Oc2cc(F)cc(Cl)c2)c2c1[C@H](O)C(F)(F)C2)C(F)F [Compound 158] |  | > 7.30 | < 50 | < 50 | 
CS(=O)(=O)c1ccc(Oc2cc(F)cc(F)c2)c2c1[C@H](O)C(F)(F)C2 [Compound 159] | > 7.30 | > 7.30 | < 50 |  | 
Cc1cc(C#N)cc(Oc2ccc(S(=O)(=O)CF)c3c2CC(F)(F)[C@H]3O)c1 [Compound 166] | > 7.30 | 6.60 to 7.30 | < 50 |  | 
N#Cc1cc(F)cc(Oc2ccc(S(=O)(=O)C(F)(F)F)c3c2CC(F)(F)[C@H]3O)c1 [Compound 185] |  | > 7.30 | < 50 | < 50 | 
O=S(=O)(c1ccc(Oc2cncc(Cl)c2)c2c1[C@H](O)C(F)(F)C2)C(F)(F)F [Compound 186] | > 7.30 | > 7.30 | < 50 |  | 
O=S(=O)(CF)c1ccc(Oc2cc(F)c(F)c(F)c2)c2c1[C@H](O)C(F)(F)C2 [Compound 188] | > 7.30 | 6.60 to 7.30 | 50 to 249 |  | 
CS(=O)(=NC#N)c1ccc(Oc2cc(F)cc(F)c2)c2c1C(O)C(F)(F)C2 (centres unmarked) [Compound 191] | > 7.30 | 6.60 to 7.30 | 50 to 249 |  | 
O=S(=O)(c1ccc(Oc2ccc(F)c(F)c2)c2c1[C@H](O)C(F)(F)C2)C(F)F [Compound 196] | > 7.30 | > 7.30 | < 50 |  | 
O=[N+]([O-])c1c(Oc2cc(F)cc(Cl)c2)ccc(C(F)(F)F)c1Cl [Compound 203] | 6.60 to 7.30 | 6.00 to 6.60 | 250 to 1000 |  | 
N#Cc1cncc(Oc2ccc(S(=O)(=O)C(F)(F)F)c3c2C[C@@H](F)[C@H]3O)c1 [Compound 225] | > 7.30 | 6.60 to 7.30 | < 50 |  | 
N#Cc1cc(Oc2ccc(S(=O)(=O)C(F)(F)F)c3c2CC(F)(F)[C@H]3O)ccc1F [Compound 228] | > 7.30 | > 7.30 | < 50 |  | 
O=S(=O)(c1ccc(Oc2ccc(F)cc2)c2c1[C@H](O)C(F)(F)C2)C(F)(F)F [Compound 230] | > 7.30 | > 7.30 | < 50 |  | 
O=S(=O)(c1ccc(Oc2ccc(F)c(F)c2)c2c1[C@H](O)C(F)(F)C2)C(F)(F)F [Compound 233] | > 7.30 | > 7.30 | < 50 |  | 

SMILES | pIC50 [1] | pEC50 (786-O cells) | EC50 (786-O-Hif-Luc cells; [2]) [nM] | IC50 [1] [nM] | EC50 (786-O-Hif-Luc cells; read-out: Mean Luciferase EC50 (nM)) [nM]
N#Cc1cccc(Oc2ccc(S(=O)(=O)C(F)F)c3c2CC(F)(F)[C@H]3O)c1 [Compound 236] | > 7.30 | > 7.30 | < 50 |  | 
CS(=O)(=NC#N)c1ccc(Oc2cc(F)cc(C#N)c2)c2c1[C@H](O)C(F)(F)C2 (some centres unmarked) [Compound 245] | > 7.30 | 6.60 to 7.30 | 50 to 249 |  | 
N#Cc1cc(Oc2ccc(S(=O)(=O)C(F)(F)F)c3c2CC(F)(F)[C@H]3O)c[n+]([O-])c1 [Compound 267] | 6.60 to 7.30 | 6.00 to 6.60 | 50 to 249 |  | 
N#Cc1cc(F)cc(Oc2ccc(C(F)(F)F)c3c2CC(F)(F)[C@H]3O)c1 [Compound 273] | > 7.30 | > 7.30 | < 50 |  | 
CS(=O)(=O)c1ccc(Oc2cc(F)cc(C#N)c2)c2c1[C@H](O)C(F)(F)[C@@H]2F [Compound 292, 3-fluoro-5-[(1S,3R)-2,2,3-trifluoro-1-hydroxy-7-methylsulfonyl-indan-4-yl]oxy-benzonitrile] | > 7.30 | > 7.30 | < 50 |  | 
N#Cc1cncc(Oc2ccc(C(F)(F)F)c3c2CC(F)(F)[C@H]3O)c1 [Compound 303] | > 7.30 | 6.60 to 7.30 | < 50 |  | 
CS(=O)(=O)c1ccc(Oc2cc(F)cc(Br)c2)c2c1[C@H](O)C(F)(F)C2 [Compound 304] | > 7.30 | 6.60 to 7.30 | < 50 |  | 
N#Cc1cc(F)cc(Oc2ccc(S(=N)(=O)C(F)(F)F)c3c2CC(F)(F)[C@H]3O)c1 (some centres unmarked) [Compound 305] | > 7.30 | > 7.30 | < 50 |  | 
O=S(=O)(c1ccc(Oc2cncc(F)c2)c2c1[C@H](O)C(F)(F)C2)C(F)(F)F [Compound 309] | > 7.30 | > 7.30 | < 50 |  | 
O=S(=O)(c1ccc(Oc2cc(F)c[n+]([O-])c2)c2c1[C@H](O)C(F)(F)C2)C(F)(F)F [Compound 310] | > 7.30 | 6.60 to 7.30 | 50 to 249 |  | 
CS(=O)(=NC#N)c1ccc(Oc2cc(F)cc(C#N)c2)c2c1[C@H](O)C(F)(F)[C@@H]2F (some centres unmarked) [Compound 316] | > 7.30 | > 7.30 | < 50 |  | 
CS(=O)(=O)c1ccc(Oc2cncc(C#N)c2)c2c1[C@H](O)C(F)(F)C2 [Compound 325] | 6.60 to 7.30 | 6.60 to 7.30 | 250 to 1000 |  | 
CS(=O)(=O)c1ccc(Oc2cncc(C#N)c2)c2c1[C@H](O)C(F)(F)[C@@H]2F [Compound 342] | > 7.30 | 6.60 to 7.30 | 50 to 249 |  | 
O=S1(=O)c2ccc(Oc3cc(F)cc(Cl)c3)c(C(F)(F)F)c2C(O)C1(F)F (centres unmarked) [Compound 360] |  | 6.60 to 7.30 |  | < 50 | 50 to 249
NC1c2c(ccc(Oc3cc(F)cc(F)c3)c2C(F)F)S(=O)(=O)C1(F)F (centres unmarked) [Compound 365] | > 7.30 | 6.60 to 7.30 | 50 to 249 |  | 
N=S1(=O)c2ccc(Oc3cc(F)cc(F)c3)c(C(F)F)c2C(O)C1(F)F (centres unmarked) [Compound 398] | > 7.30 | 6.60 to 7.30 | 50 to 249 |  | 
O=S1(=O)c2ccc(Oc3cncc(Cl)c3)c(Br)c2[C@@H](O)C1(F)F [Compound 421] | 6.60 to 7.30 | 6.60 to 7.30 | 50 to 249 |  | 
N#Cc1cncc(Oc2ccc3c(c2Br)[C@@H](O)C(F)(F)S3(=O)=O)c1 [Compound 424] | 6.60 to 7.30 | 6.00 to 6.60 | 50 to 249 |  | 
N#Cc1cc(F)cc(Oc2ccc3c(c2Cl)[C@@H](O)C(F)(F)S3(=O)=O)c1 [Compound 431] | > 7.30 | 6.60 to 7.30 | < 50 |  | 
CC1(O)c2c(ccc(Oc3cc(F)cc(F)c3)c2C#N)S(=O)(=O)C1(F)F (centres unmarked) [Compound 446] | > 7.30 | > 7.30 | < 50 |  | 
O[C@H]1c2c(C(F)(F)F)ncc(OC3CC(F)C3)c2C[C@H]1F (some centres unmarked) [Compound 478] |  | > 7.30 | < 50 |  | 
N#Cc1cc(F)cc(Nc2ccc(S(=O)(=O)C(F)(F)F)c3c2CC(F)(F)[C@H]3O)c1 [Compound 489, (S)-3-((2,2-difluoro-1-hydroxy-7-((trifluoromethyl)sulfonyl)-2,3-dihydro-1H-inden-4-yl)amino)-5-fluorobenzonitrile] | > 7.30 | > 7.30 | < 50 |  | 
O=S(=O)(c1ccc(CCO)c2c1C(O)CC2)C(F)(F)F (centres unmarked) [Compound 495, 4-(2-hydroxyethyl)-7-((trifluoromethyl)sulfonyl)-2,3-dihydro-1H-inden-1-ol] | < 6.00 | 6.00 to 6.60 | > 1000 |  | 
O=S(=O)(c1ccc(Nc2cc(F)cc(F)c2)c2c1C(O)C(F)(F)C2)C(F)(F)F (centres unmarked) [Compound 507] | > 7.30 | 6.60 to 7.30 | 50 to 249 |  | 
O=S(=O)(c1ccc(OCC(F)F)c2c1[C@H](O)C(F)(F)C2)C(F)(F)F [Compound 571] | > 7.30 | > 7.30 | < 50 |  | 
